Experimental data from paper PMC11361161 (BMC Chemistry, 2024).
Where two headings read alike, the source gives them in different places.

Target: human thymidylate synthase (hTS) (Homo sapiens, UniProt P04818)
Assay: Thymidylate synthase inhibitory assay
Type: biochemical

Chain of human thymidylate synthase (hTS) (P04818 whole entry): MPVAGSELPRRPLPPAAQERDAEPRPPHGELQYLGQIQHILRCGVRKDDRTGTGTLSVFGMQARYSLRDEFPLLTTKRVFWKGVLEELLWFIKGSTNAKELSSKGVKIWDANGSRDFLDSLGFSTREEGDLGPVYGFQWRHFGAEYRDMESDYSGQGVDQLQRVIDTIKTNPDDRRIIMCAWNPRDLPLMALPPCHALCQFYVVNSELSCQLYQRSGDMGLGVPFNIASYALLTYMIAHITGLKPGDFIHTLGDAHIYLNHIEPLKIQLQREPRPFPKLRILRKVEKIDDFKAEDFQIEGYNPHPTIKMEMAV

| IC50 (read-out: In vitro thymidylate synthase (TS) IC50, 30 °C, pH 7.4, 30 nM hTS, absorbance at 340 nm, mean ± SEM, triplicate) [nM] | IC50 [nM] | Compound |
| --- | --- | --- |
| 13.5 ± 0.96 |  | 7-(4-methoxyphenyl)-1,3-dimethyl-5-(naphthalen-2-yl)pyrido[2,3-d]pyrimidine-2,4(1 H,3 H)-dione [Compound 2n] |
|  | 20.5 ± 1.09 | COc1ccc(-c2cc(-c3ccc(N(C)C)cc3)c3c(=O)[nH]c(=O)[nH]c3n2)cc1 [Compound 1j, 5-(4-(dimethylamino)phenyl)-7-(4-methoxyphenyl)pyrido[2,3-d]pyrimidine-2,4(1 H,3 H)-dione] |
|  | 20.5 ± 1.09 | COc1ccc(-c2cc(-c3ccc4ccccc4c3)c3c(=O)[nH]c(=O)[nH]c3n2)cc1 [Compound 1n, 7-(4-methoxyphenyl)-5-(naphthalen-2-yl)pyrido[2,3-d]pyrimidine-2,4(1 H,3 H)-dione] |
|  | 13.5 ± 0.96 | COc1ccc(-c2cc(-c3ccc(N(C)C)cc3)c3c(=O)n(C)c(=O)n(C)c3n2)cc1 [Compound 2j, 5-(4-(dimethylamino)phenyl)-7-(4-methoxyphenyl)-1,3-dimethylpyrido[2,3-d]pyrimidine-2,4(1 H,3 H)-dione] |
